Assays:
[1] = target: T1, TLR8 (Homo sapiens, UniProt Q9NR97); experiment: In vitro human TLR8 binding reporter assay (HEK-Blue, NF-kB/AP1-inducible SEAP); format: cell-based; settings: activity range symbols
T1 construct: host or cells: HEK-Blue cells (human HEK) co-expressing TLR8 and an NF-kB/AP1-inducible SEAP reporter
T1 sequence (Q9NR97 27-1041): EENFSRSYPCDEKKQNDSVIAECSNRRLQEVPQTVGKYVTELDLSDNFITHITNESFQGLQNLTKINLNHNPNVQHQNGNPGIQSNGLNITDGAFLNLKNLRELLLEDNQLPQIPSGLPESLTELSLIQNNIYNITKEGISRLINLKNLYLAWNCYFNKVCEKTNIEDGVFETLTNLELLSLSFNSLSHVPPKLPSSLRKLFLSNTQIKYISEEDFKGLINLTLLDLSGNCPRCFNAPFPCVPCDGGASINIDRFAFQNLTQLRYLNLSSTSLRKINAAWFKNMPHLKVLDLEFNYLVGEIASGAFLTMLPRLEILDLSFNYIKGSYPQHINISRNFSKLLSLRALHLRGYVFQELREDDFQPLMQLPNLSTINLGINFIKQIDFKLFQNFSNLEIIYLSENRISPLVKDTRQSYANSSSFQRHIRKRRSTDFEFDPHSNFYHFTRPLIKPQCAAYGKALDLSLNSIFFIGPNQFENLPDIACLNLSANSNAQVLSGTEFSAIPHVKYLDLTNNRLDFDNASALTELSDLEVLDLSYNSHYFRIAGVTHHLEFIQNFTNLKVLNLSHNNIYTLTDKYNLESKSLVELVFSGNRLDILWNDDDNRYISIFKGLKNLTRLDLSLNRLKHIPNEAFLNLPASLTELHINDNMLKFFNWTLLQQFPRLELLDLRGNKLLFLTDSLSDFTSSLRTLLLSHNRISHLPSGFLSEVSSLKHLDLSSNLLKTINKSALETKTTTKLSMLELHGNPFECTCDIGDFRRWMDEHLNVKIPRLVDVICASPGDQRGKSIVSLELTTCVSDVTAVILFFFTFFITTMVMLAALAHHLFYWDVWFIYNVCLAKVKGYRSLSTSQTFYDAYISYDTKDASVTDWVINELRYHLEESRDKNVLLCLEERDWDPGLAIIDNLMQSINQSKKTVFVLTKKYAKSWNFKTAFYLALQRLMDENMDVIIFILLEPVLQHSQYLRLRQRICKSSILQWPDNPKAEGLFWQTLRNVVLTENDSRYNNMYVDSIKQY
Summary of the method: (§1)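 Reporter cells are plated at 15,000 per well and rested 24 h. Next day, test compounds or DMSO are dispensed, followed by 18 h incubation at 37 °C, 5% CO2.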

[2] = target: T2, TLR7 (Homo sapiens, UniProt Q9NYK1); experiment: In vitro human TLR7 binding reporter assay (HEK-Blue, NF-kB/AP1-inducible SEAP); format: cell-based; settings: activity range symbols
T2 construct: host or cells: HEK-Blue cells (human HEK) co-expressing TLR7 and an NF-kB/AP1-inducible SEAP reporter
T2 sequence (Q9NYK1 27-1049): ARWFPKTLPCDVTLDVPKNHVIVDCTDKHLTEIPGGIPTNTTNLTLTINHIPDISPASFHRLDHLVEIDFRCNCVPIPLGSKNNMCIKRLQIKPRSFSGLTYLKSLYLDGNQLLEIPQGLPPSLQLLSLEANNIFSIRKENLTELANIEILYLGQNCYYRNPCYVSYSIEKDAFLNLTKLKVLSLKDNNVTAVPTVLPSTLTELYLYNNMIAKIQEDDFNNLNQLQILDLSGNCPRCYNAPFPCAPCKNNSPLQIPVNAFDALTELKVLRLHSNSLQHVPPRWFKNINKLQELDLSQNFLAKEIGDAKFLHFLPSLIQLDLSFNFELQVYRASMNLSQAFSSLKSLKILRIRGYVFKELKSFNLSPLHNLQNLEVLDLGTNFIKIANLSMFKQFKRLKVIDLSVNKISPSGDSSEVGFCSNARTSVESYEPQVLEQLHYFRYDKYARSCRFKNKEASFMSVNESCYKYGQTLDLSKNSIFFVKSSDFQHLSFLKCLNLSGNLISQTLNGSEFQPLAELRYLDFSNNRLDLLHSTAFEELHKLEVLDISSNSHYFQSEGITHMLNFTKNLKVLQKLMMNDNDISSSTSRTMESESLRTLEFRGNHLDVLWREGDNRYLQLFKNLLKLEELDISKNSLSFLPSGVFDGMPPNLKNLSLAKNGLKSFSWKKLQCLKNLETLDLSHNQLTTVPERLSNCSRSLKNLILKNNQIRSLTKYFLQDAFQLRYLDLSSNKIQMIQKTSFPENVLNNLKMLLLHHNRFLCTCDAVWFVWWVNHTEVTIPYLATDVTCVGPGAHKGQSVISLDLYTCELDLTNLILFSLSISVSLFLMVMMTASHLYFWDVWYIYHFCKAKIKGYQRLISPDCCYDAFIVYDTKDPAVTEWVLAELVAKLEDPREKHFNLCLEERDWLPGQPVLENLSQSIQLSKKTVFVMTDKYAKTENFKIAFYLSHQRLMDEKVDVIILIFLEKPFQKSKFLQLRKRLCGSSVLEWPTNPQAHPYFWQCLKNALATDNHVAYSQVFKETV
Summary of the method: as §1

Nc1nc2cc(-c3ccccc3F)ccc2c2[nH]c(CN3CCCC3=O)nc12 [Compound 284, 1-[[4-amino-7-(2-fluorophenyl)-1H-imidazo[4,5-c]quinolin-2-yl]methyl]pyrrolidin-2-one]
EC50 [1]: > 100 µM
EC50 [2]: > 100 µM

Nc1nc2cc(-c3cccc(Cl)c3)ccc2c2[nH]c(CN3CCCC3=O)nc12 [Compound 285, 1-[[4-amino-7-(3-chlorophenyl)-1H-imidazo[4,5-c]quinolin-2-yl]methyl]pyrrolidin-2-one]
EC50 [1]: > 100 µM
EC50 [2]: > 100 µM

Cc1cccc(-c2ccc3c(c2)nc(N)c2nc(CN4CCCC4=O)[nH]c23)c1 [Compound 286, 1-[[4-amino-7-(3-methylphenyl)-1H-imidazo[4,5-c]quinolin-2-yl]methyl]pyrrolidin-2-one]
EC50 [1]: > 100 µM
EC50 [2]: > 100 µM

COc1cccc(-c2ccc3c(c2)nc(N)c2nc(CN4CCCC4=O)[nH]c23)c1 [Compound 287, 1-[[4-amino-7-(3-methoxyphenyl)-1H-imidazo[4,5-c]quinolin-2-yl]methyl]pyrrolidin-2-one]
EC50 [1]: > 100 µM
EC50 [2]: > 100 µM

N#Cc1cccc(-c2ccc3c(c2)nc(N)c2nc(CN4CCCC4=O)[nH]c23)c1 [Compound 288, 3-[4-amino-2-[(2-oxopyrrolidin-l-yl)methyl]-1H-imidazo[4,5-c]quinolin-7-yl]benzonitrile]
EC50 [1]: > 100 µM
EC50 [2]: > 100 µM

Nc1nc2cc(-c3cccc(F)c3)ccc2c2[nH]c(CN3CCCC3=O)nc12 [Compound 289, 1-[[4-amino-7-(3-fluorophenyl)-1H-imidazo[4,5-c]quinolin-2-yl]methyl]pyrrolidin-2-one]
EC50 [1]: > 100 µM
EC50 [2]: > 100 µM

Cc1ccc(-c2ccc3c(c2)nc(N)c2nc(CN4CCCC4=O)[nH]c23)cc1 [Compound 291, 1-[[4-amino-7-(4-methylphenyl)-1H-imidazo[4,5-c]quinolin-2-yl]methyl]pyrrolidin-2-one]
EC50 [1]: > 100 µM
EC50 [2]: > 100 µM

Nc1nc2cc(Br)ccc2c2[nH]c(CN3CCCC3=O)nc12 [Compound 294, 1-[(4-amino-7-bromo-1H-imidazo[4,5-c]quinolin-2-yl)methyl]pyrrolidin-2-one]
EC50 [1]: > 100 µM
EC50 [2]: 20 to 100 µM

Nc1nc2cc(-n3cccn3)ccc2c2[nH]c(CN3CCCC3=O)nc12 [Compound 295, 1-[(4-amino-7-pyrazol-1-yl-1H-imidazo[4,5-c]quinolin-2-yl)methyl]pyrrolidin-2-one]
EC50 [1]: > 100 µM
EC50 [2]: > 100 µM

Cc1cnn(-c2ccc3c(c2)nc(N)c2nc(CN4CCCC4=O)[nH]c23)c1 [Compound 296, 1-[[4-amino-7-(4-methylpyrazol-1-yl)-1H-imidazo[4,5-c]quinolin-2-yl]methyl]pyrrolidin-2-one]
EC50 [1]: > 100 µM
EC50 [2]: > 100 µM

Nc1nc2cc(C3CCOCC3)ccc2c2[nH]c(CN3CCCC3=O)nc12 [Compound 298, 1-[[4-amino-7-(oxan-4-yl)-1H-imidazo[4,5-c]quinolin-2-yl]methyl]pyrrolidin-2-one]
EC50 [1]: > 100 µM
EC50 [2]: 1 to 20 µM

Cc1ccn(-c2ccc3c(c2)nc(N)c2nc(CN4CCCC4=O)[nH]c23)n1 [Compound 301, 1-[[4-amino-7-(3-methylpyrazol-1-yl)-1H-imidazo[4,5-c]quinolin-2-yl]methyl]pyrrolidin-2-one]
EC50 [1]: > 100 µM
EC50 [2]: > 100 µM

Nc1nc2cc(C3CCCCC3)ccc2c2[nH]c(CN3CCCC3=O)nc12 [Compound 302, 1-[(4-amino-7-cyclohexyl-1H-imidazo[4,5-c]quinolin-2-yl)methyl]pyrrolidin-2-one]
EC50 [1]: > 100 µM
EC50 [2]: > 100 µM

CC(c1nc2c(N)nc3cc(Br)ccc3c2[nH]1)N1CCCC1=O (stereo not shown) [Compound 303, 1-[1-(4-amino-7-bromo-1H-imidazo[4,5-c]quinolin-2-yl)ethyl]pyrrolidin-2-one]
EC50 [1]: 20 to 100 µM
EC50 [2]: 20 to 100 µM

— US12351580B2, “NLRP3 modulators” (Innate Tumor Immunity, Inc., priority 2017, dated 2025)
